PubChem BioAssay (NCI)
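In this assay, cells in 96-well plates receive the compound at five concentrations for 48 hours. Endpoints are linearly interpolated between the surrounding concentrations. TGI denotes the concentration required for complete inhibition of growth.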

System: P388/ADR leukemia
Experiment: NCI tumour cell line growth inhibition, 48 h

Compound `CC[C@@]1(O)C(=O)OCc2c1cc1n(c2=O)Cc2cc3cc(O)ccc3nc2-1` has a TGI of 1030 nM.
